US20230330254A1 (Regeneron Pharmaceuticals, Inc., priority 2022, published 2023)
Where two headings read alike, the source gives them in different places. *1 amine or outer side, *2 acyl side, *3 side chain or, on linkers, in order; H or OH if unused. Where a SMILES comes first, the peptide text is derived from it. Side-chain parts run from the residue outwards. [ ]: non-standard residue; d: D form. The star is where a group is joined. PEG24 = NCCOCCOCCOCCOCCOCCOCCOCCOCCOCCOCCOCCOCCOCCOCCOCCOCCOCCOCCOCCOCCOCCOCCOCCOCCC(=O)O; Bip(2'-Et-4'-O(CH2)4NH2) = CCc1cc(OCCCCN[*:3])ccc1-c1ccc(C[C@H](N[*:1])C(=O)[*:2])cc1; Bip(2'-Et,4'-O(CH2)4N3) = CCc1cc(OCCCCN=[N+]=[N-])ccc1-c1ccc(C[C@H](N)C(=O)O)cc1; Bip(2'-Et,4'-O(CH2)4NH2) = CCc1cc(OCCCCN)ccc1-c1ccc(C[C@H](N)C(=O)O)cc1; Malonyl(2,2-Me2,histaminyl) = CC(C)(C(=O)NCCc1cnc[nH]1)C(=O)*; PEG12 = NCCOCCOCCOCCOCCOCCOCCOCCOCCOCCOCCOCCOCCC(=O)O; Nva(5-(3,5-Me2Ph)) = Cc1cc(C)cc(CCC[C@H](N)C(=O)O)c1; Ala(1H-tetrazol-5-yl) = N[C@@H](Cc1nnn[nH]1)C(=O)O; αMePhe(2-F) = C[C@](N)(Cc1ccccc1F)C(=O)O; X9 = O=C([C@@H]1CCN(CCc2cnc[nH]2)C1)*; DBCO = C1#Cc2ccccc2N(*)Cc2ccccc21; Suc = O=C(CCC(=O)[*:2])[*:1]; X1 = O=C(CCCCCc1cnc[nH]1)*; X2 = CC(C)(C(N)=O)C(=O)*

Experiments:
human GLP1R = human GLP1R (Homo sapiens, UniProt P43220); assay: Luciferase reporter assay, HEK293/CRE-Luc/hGLP1R (Example 17); type: cell-based; parameters: engineered to express full-length human GLP1R, cynomolgus GLP1R; expressed in transfected cells; host or cells: HEK293/CRE-Luc; details: for S/N: highest RLU / RLU of untreated wells; for Relative Potency (% M2361 EC50) / Relative Signal:Noise (% M2361): relative to M2361 of the same experiment
Source text: (§1) To test the activity of GLP1R agonist payloads, GLP1R agonist linker-payloads (LPs), and anti-GLP1R antibody tethered drug conjugates (ATDCs) of the invention, a cell-based cAMP responsive luciferase reporter assay was developed. To generate the assay cell line, the firefly luciferase gene was placed under the control of a cAMP response element (CRE) located upstream of a minimal promoter and transfected into HEK293 cells and referred to herein as HEK293/CRE-Luc cells.
(§2) Three-fold serial dilutions of free payloads or LPs were prepared in 100% DMSO, transferred to fresh assay media, and added to the cells at a final constant DMSO concentration of 0.2%. The last well in the plate served as a blank control containing only the assay media and 0.2% DMSO (untreated well) and was plotted as a continuation of the 3-fold serial dilution. Four to six hours later, luciferase activity was determined after the addition of One-Glo™ reagent (Promega, Cat #E6130) to each well. Relative light units (RLUs) were measured on an Envision luminometer (PerkinElmer) and EC50 values were determined using a four-parameter logistic equation over a 12-point dose response curve (GraphPad Prism). The signal to noise (S/N) was determined by taking the ratio of the highest RLU on the dose response curve to the RLU in the untreated wells. Data was generated across several experiments (A-E) with M2361 serving as a reference standard in each experiment to calculate the payload relative potency ((M2361 EC50/payload EC50)*100)) and relative S/N ((payload SN/M2361 SN)*100)).

HEK293/CRE-Luc cells = assay: Luciferase reporter assay, HEK293/CRE-Luc cells without GLP1R (Example 17); type: cell-based, human
Source text: as §1, §2

[1] = HEK293/CRE-Luc/hGLP1R, payloads and linker-payloads, experiments A-E, M2361 repeated in each, read-out: EC50
[2] = HEK293/CRE-Luc cells without hGLP1R, payloads and linker-payloads
[3] = HEK293/CRE-Luc cells without hGLP1R, payloads and linker-payloads, read-out: EC50
[4] = text b1830, read-out: EC50 in HEK293/CRE-Luc/hGLP1R cells
[5] = Table 28, reporter cells without GLP1R, read-out: HEK293/CRE-Luc EC50
[6] = Table 29, reporter cells without GLP1R, read-out: HEK293/CRE-Luc EC50

Chain of human GLP1R (P43220 24-463): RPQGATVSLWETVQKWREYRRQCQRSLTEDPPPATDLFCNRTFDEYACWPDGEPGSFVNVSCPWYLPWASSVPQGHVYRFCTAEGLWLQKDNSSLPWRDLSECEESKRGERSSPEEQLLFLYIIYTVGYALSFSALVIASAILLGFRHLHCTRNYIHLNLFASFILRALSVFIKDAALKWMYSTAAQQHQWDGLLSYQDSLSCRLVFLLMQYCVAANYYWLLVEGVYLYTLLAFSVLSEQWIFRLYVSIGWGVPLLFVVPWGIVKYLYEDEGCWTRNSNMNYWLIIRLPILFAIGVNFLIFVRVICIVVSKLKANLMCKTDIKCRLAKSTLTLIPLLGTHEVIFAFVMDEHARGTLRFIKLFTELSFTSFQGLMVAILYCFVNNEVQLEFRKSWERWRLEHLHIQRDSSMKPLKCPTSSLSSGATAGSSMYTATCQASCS

Row | Molecule | S/N (human GLP1R; HEK293/CRE-Luc/hGLP1R) | EC50 (human GLP1R; [1]) [nM] | Relative Potency (% M2361 EC50) (human GLP1R; HEK293/CRE-Luc/hGLP1R) [%] | Relative Signal:Noise (% M2361) (human GLP1R; HEK293/CRE-Luc/hGLP1R) [%] | S/N (HEK293/CRE-Luc cells; [2]) | EC50 (HEK293/CRE-Luc cells; [3]) [nM] | EC50 (human GLP1R; [4]) [nM] | EC50 (HEK293/CRE-Luc cells; [5]) [nM] | EC50 (HEK293/CRE-Luc cells; [6]) [nM]
1 | CCc1cc(OCCCCN)ccc1-c1ccc(C[C@H](NC(=O)[C@H](CC(=O)O)NC(=O)[C@H](CO)NC(=O)[C@@H](NC(=O)[C@](C)(Cc2ccccc2F)NC(=O)[C@@H](NC(=O)CNC(=O)[C@H](Cc2nn[nH]n2)NC(=O)C2(C)CCN(CCc3cnc[nH]3)C2=O)[C@@H](C)O)[C@@H](C)O)C(=O)N[C@@H](CCCc2cc(C)cc(C)c2)C(N)=O)cc1 (stereo in doubt) [P14] | 74.9 | 0.184 | 2.9 | 113.9 | 1.6 | > 200 |  |  | 
2 | CCc1cc(OCCCCNC(=O)CCOCCOCCOCCOCCOCCOCCOCCOCCOCCOCCOCCOCCNC(=O)CCC(=O)N2Cc3ccccc3C#Cc3ccccc32)ccc1-c1ccc(C[C@H](NC(=O)[C@H](CC(=O)O)NC(=O)[C@H](CO)NC(=O)[C@@H](NC(=O)[C@](C)(Cc2ccccc2F)NC(=O)[C@@H](NC(=O)CNC(=O)[C@H](Cc2nn[nH]n2)NC(=O)C(C)(C)C(=O)NCCc2cnc[nH]2)[C@@H](C)O)[C@@H](C)O)C(=O)N[C@@H](CCCc2cc(C)cc(C)c2)C(N)=O)cc1 [LP3, DIBAC-suc-PEG12-P9] ({Malonyl(2,2-Me2,histaminyl)}-[Ala(1H-tetrazol-5-yl)]GT[αMePhe(2-F)]TSD[Bip(2'-Et-4'-O(CH2)4NH2)]([PEG12-Suc-DBCO])[Nva(5-(3,5-Me2Ph))]-NH2) | 293.2 | 0.0976 | 28.0 | 124.3 |  |  |  |  | 
3 | CCc1cc(OCCCCNC(=O)CCOCCOCCOCCOCCOCCOCCOCCOCCOCCOCCOCCOCCOCCOCCOCCOCCOCCOCCOCCOCCOCCOCCOCCOCCNC(=O)CCC(=O)N2Cc3ccccc3C#Cc3ccccc32)ccc1-c1ccc(C[C@H](NC(=O)[C@H](CC(=O)O)NC(=O)[C@H](CO)NC(=O)[C@@H](NC(=O)[C@](C)(Cc2ccccc2F)NC(=O)[C@@H](NC(=O)CNC(=O)[C@H](Cc2nn[nH]n2)NC(=O)C(C)(C)C(N)=O)[C@@H](C)O)[C@@H](C)O)C(=O)N[C@@H](CCCc2cc(C)cc(C)c2)C(N)=O)cc1 [LP13, DIBAC-suc-PEG24-P4] (X2-[Ala(1H-tetrazol-5-yl)]GT[αMePhe(2-F)]TSD[Bip(2'-Et-4'-O(CH2)4NH2)]([PEG24-Suc-DBCO])[Nva(5-(3,5-Me2Ph))]-NH2) | 79.3 | 4.83 | 0.2 | 110.2 | 1.3 | > 20 |  |  | 
4 | CCc1cc(OCCCCNC(=O)[C@H](CO)NC(=O)CNC(=O)CNC(=O)CNC(=O)CNC(=O)CCC(=O)N2Cc3ccccc3C#Cc3ccccc32)ccc1-c1ccc(C[C@H](NC(=O)[C@H](CC(=O)O)NC(=O)[C@H](CO)NC(=O)[C@@H](NC(=O)[C@](C)(Cc2ccccc2F)NC(=O)[C@@H](NC(=O)CNC(=O)[C@H](Cc2nn[nH]n2)NC(=O)C(C)(C)C(N)=O)[C@@H](C)O)[C@@H](C)O)C(=O)N[C@@H](CCCc2cc(C)cc(C)c2)C(N)=O)cc1 [LP14, DIBAC- suc-G4S- P4] | 78.1 | 0.366 | 2.2 | 108.6 | 1.3 | > 20 |  |  | 
5 | CCc1cc(OCCCCNC(=O)[C@H](CO)NC(=O)CNC(=O)CNC(=O)CNC(=O)CNC(=O)[C@H](CO)NC(=O)CNC(=O)CNC(=O)CNC(=O)CNC(=O)CCC(=O)N2Cc3ccccc3C#Cc3ccccc32)ccc1-c1ccc(C[C@H](NC(=O)[C@H](CC(=O)O)NC(=O)[C@H](CO)NC(=O)[C@@H](NC(=O)[C@](C)(Cc2ccccc2F)NC(=O)[C@@H](NC(=O)CNC(=O)[C@H](Cc2nn[nH]n2)NC(=O)C(C)(C)C(=O)NCCc2cnc[nH]2)[C@@H](C)O)[C@@H](C)O)C(=O)N[C@@H](CCCc2cc(C)cc(C)c2)C(N)=O)cc1 [LP17, DIBAC- suc-G4S- G4S-P9] | 258.0 | 0.0542 | 50.4 | 109.4 |  |  |  |  | 
6 | CCc1cc(OCCCCN=[N+]=[N-])ccc1-c1ccc(C[C@H](NC(=O)[C@H](CC(=O)O)NC(=O)[C@H](CO)NC(=O)[C@@H](NC(=O)[C@](C)(Cc2ccccc2F)NC(=O)[C@@H](NC(=O)CNC(=O)[C@@H](N)Cc2nn[nH]n2)[C@@H](C)O)[C@@H](C)O)C(=O)N[C@@H](CCCc2cc(C)cc(C)c2)C(N)=O)cc1 [M2383] (H-[Ala(1H-tetrazol-5-yl)]GT[αMePhe(2-F)]TSD[Bip(2'-Et,4'-O(CH2)4N3)][Nva(5-(3,5-Me2Ph))]-NH2) | 293.3 | > 200 | 0.0 | 89.4 | 1.8 | > 200 | > 20 |  | 
7 | CCc1cc(OCCCCNC(=O)CCOCCOCCOCCOCCOCCOCCOCCOCCOCCOCCOCCOCCOCCOCCOCCOCCOCCOCCOCCOCCOCCOCCOCCOCCNC(=O)CCC(=O)N2Cc3ccccc3-c3nn[nH]c3-c3ccccc32)ccc1-c1ccc(C[C@H](NC(=O)[C@H](CC(=O)O)NC(=O)[C@H](CO)NC(=O)[C@@H](NC(=O)[C@](C)(Cc2ccccc2F)NC(=O)[C@@H](NC(=O)CNC(=O)[C@H](Cc2nn[nH]n2)NC(=O)C(C)(C)C(=O)NCCc2cnc[nH]2)[C@@H](C)O)[C@@H](C)O)C(=O)N[C@@H](CCCc2cc(C)cc(C)c2)C(C)=O)cc1 [M2547] | 267.8 |  | 38.6 | 81.7 |  |  |  |  | 
8 | CCc1cc(OCCCCNC(=O)[C@H](CO)NC(=O)CNC(=O)CNC(=O)CNC(=O)CN)ccc1-c1ccc(C[C@H](NC(=O)[C@H](CC(=O)O)NC(=O)[C@H](CO)NC(=O)[C@@H](NC(=O)[C@](C)(Cc2ccccc2F)NC(=O)[C@@H](NC(=O)CNC(=O)[C@H](Cc2nn[nH]n2)NC(=O)C(C)(C)C(=O)NCCc2cnc[nH]2)[C@@H](C)O)[C@@H](C)O)C(=O)N[C@@H](CCCc2cc(C)cc(C)c2)C(N)=O)cc1 [M2739, G4S-P9] | 282.1 | 0.01 | 193.4 | 86.0 |  |  |  |  | 
9 | CCc1cc(OCCCCNC(=O)CCOCCOCCOCCOCCOCCOCCOCCOCCOCCOCCOCCOCCOCCOCCOCCOCCOCCOCCOCCOCCOCCOCCOCCOCCNC(=O)CCC(=O)N2Cc3ccccc3C#Cc3ccccc32)ccc1-c1ccc(C[C@H](NC(=O)[C@H](CC(=O)O)NC(=O)[C@H](CO)NC(=O)[C@@H](NC(=O)[C@](C)(Cc2ccccc2F)NC(=O)[C@@H](NC(=O)CNC(=O)[C@H](Cc2nn[nH]n2)NC(=O)CCCCCc2cnc[nH]2)[C@@H](C)O)[C@@H](C)O)C(=O)N[C@@H](CCCc2cc(C)cc(C)c2)C(N)=O)cc1 [M2944] (X1-[Ala(1H-tetrazol-5-yl)]GT[αMePhe(2-F)]TSD[Bip(2'-Et-4'-O(CH2)4NH2)]([PEG24-Suc-DBCO])[Nva(5-(3,5-Me2Ph))]-NH2) |  | > 20 |  |  |  |  | > 20 |  | 
10 | CCc1cc(OCCCCN)ccc1-c1ccc(C[C@H](NC(=O)[C@H](CC(=O)O)NC(=O)[C@H](CO)NC(=O)[C@@H](NC(=O)[C@](C)(Cc2ccccc2F)NC(=O)[C@@H](NC(=O)CNC(=O)[C@H](Cc2nn[nH]n2)NC(=O)[C@@H]2CCN(CCc3cnc[nH]3)C2)[C@@H](C)O)[C@@H](C)O)C(=O)N[C@@H](CCCc2cc(C)cc(C)c2)C(N)=O)cc1 [P17] (X9-[Ala(1H-tetrazol-5-yl)]GT[αMePhe(2-F)]TSD[Bip(2'-Et,4'-O(CH2)4NH2)][Nva(5-(3,5-Me2Ph))]-NH2) |  |  |  |  | 1.0 | > 200 |  |  | 
11 | GCG [reference compound] |  |  |  |  |  |  |  | > 200 | > 30
12 | GIP [reference compound] |  |  |  |  |  |  |  | > 200 | > 30
13 | GLP2 [reference compound] |  |  |  |  |  |  |  | > 200 | > 30
